In ChEMBL document CHEMBL4507280 (2021):

Molecular target: Sigma non-opioid intracellular receptor 1 (Homo sapiens) (UniProt Q99720)
Assay: SIGMA1/HU Eurofins-Panlabs selectivity data (BI)
Conditions: Compound concentration 10.0 uM

Sigma non-opioid intracellular receptor 1 (Homo sapiens), sequence (Q99720 whole entry): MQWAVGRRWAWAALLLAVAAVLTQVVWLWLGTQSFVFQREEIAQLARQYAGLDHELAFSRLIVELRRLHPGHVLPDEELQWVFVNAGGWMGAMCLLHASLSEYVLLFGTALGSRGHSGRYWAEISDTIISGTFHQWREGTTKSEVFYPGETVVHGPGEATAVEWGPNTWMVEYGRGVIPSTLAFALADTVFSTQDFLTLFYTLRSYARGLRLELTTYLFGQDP

CCC(=O)N[C@H]1CC[C@@H](C(=O)N(C)c2ccc(-c3nc4ccccc4o3)cc2)C1 [BI 99179]
residual activity: 102%
